Laboratory results from PubChem BioAssay AID1745844 (Carcinogenic Potency Database (CPDB), 2022).
Calls of active or inactive are those of the source. The rule behind the calls is not given here.

Test system: rodent lifetime carcinogenesis bioassay, tumor incidence TD50
Test: carcinogenic potency in animals, long-term in vivo studies, CPDB compilation (AID 1745844)
Conditions: for carcinogen call: study length 101 weeks

O=NN(c1ccccc1)c1ccccc1
TD50 (mouse, strain B6AKF1, females, oral dosing, site: any site (literature study), lesion: several types, types named in the paper, dosed 76 weeks, study length 76 weeks): 3260 mg/kg/day | TD50 (mouse, strain B6AKF1, females, oral dosing, site: lung, lesion: adenoma, dosed 76 weeks, study length 76 weeks): 1020 mg/kg/day | carcinogen call (mouse, strain B6C3F1, females, in feed, site: any site (literature study), lesion: several types, types named in the paper, dosed 98 weeks): negative (inactive) | carcinogen call (mouse, strain B6C3F1, males, in feed, site: any site (literature study), lesion: several types, types named in the paper, dosed 101 weeks): negative (inactive) | TD50 (mouse, strain B6C3F1, males, oral dosing, site: any site (literature study), lesion: several types, types named in the paper, dosed 76 weeks, study length 76 weeks): 897 mg/kg/day | TD50 (mouse, strain B6C3F1, males, oral dosing, site: liver, lesion: hepatoma, dosed 76 weeks, study length 76 weeks): 385 mg/kg/day | TD50 (mouse, strain B6C3F1, males, oral dosing, site: lung, lesion: adenoma, dosed 76 weeks, study length 76 weeks): 9670 mg/kg/day | TD50 (rat, strain CB, males, i.p., site: liver, lesion: hepatoma, dosed 26 weeks, study length 100 weeks): 18.9 mg/kg/day (inactive) | TD50 (rat, strain Fischer 344, females, in feed, site: any site (literature study), lesion: several types, types named in the paper, dosed 100 weeks, study length 100 weeks): 159 mg/kg/day | TD50 (rat, strain Fischer 344, females, in feed, site: urinary bladder, lesion: transitional-cell carcinoma, dosed 100 weeks, study length 100 weeks): 116 mg/kg/day | TD50 (rat, strain Fischer 344, males, in feed, site: all sites, lesion: fibroma, dosed 100 weeks, study length 100 weeks): 537 mg/kg/day | TD50 (rat, strain Fischer 344, males, in feed, site: any site (literature study), lesion: several types, types named in the paper, dosed 100 weeks, study length 100 weeks): 136000 mg/kg/day | TD50 (rat, strain Fischer 344, males, in feed, site: liver, lesion: hepatocellular adenoma + hepatocellular carcinoma + neoplastic nodule, dosed 100 weeks, study length 100 weeks): 5450 mg/kg/day | TD50 (rat, strain Fischer 344, males, in feed, site: urinary bladder, lesion: transitional-cell carcinoma, dosed 100 weeks, study length 100 weeks): 299 mg/kg/day
